US8685974B2 (Bayer CropScience AG, priority 2009, dated 2014)
Like-named read-outs stand apart in the source and are kept apart here. Marks after values point to notes of the source that are not given here.

Row | Compound | log p (pH 2.7) | further results
1 | FC(F)Cn1cc(-c2ccncc2)c(-c2sccc2Cl)n1 [Example 127] | 1.14^[b] | logP value of the minor isomer (pH 2.7): (1.17)
2 | FC(F)(F)c1ccc(-c2c(-c3ccncc3)cnn2C2CCCCO2)s1 (stereo not shown) [4-[1-(2-tetrahydropyrannyl)-5-(5-trifluoromethyl-2-thienyl)-1H-pyrazol-4-yl]pyridine] |  | logP (pH2.7) (pH 2.7): 1.96
3 | Fc1cccc(Cn2cc(-c3ccncc3)c(-c3cc4ccsc4s3)n2)c1F [Example 327] | 1.75^[b] | 
4 | CC(C)Nc1nccc(-c2cn(C)nc2-c2ccc(Cl)s2)n1 [Example 139] | 2.07^[b] | logP value of the minor isomer (pH 2.7): (1.93)
5 | N#CCCn1cc(-c2ccncc2)c(-c2cc(Cl)cs2)n1 [Example 126] | 1.16^[b] | 
6 | CC(C)n1cc(-c2ccnc(N)n2)c(-c2ccc(Cl)s2)n1 [Example 185] |  | log p (pH 2.3): 2.01^[a]
7 | CC(C)Cn1ncc(-c2cc[n+]([O-])c(N)c2)c1-c1ccc(Cl)s1 [2-Amino-4-[1-isobutyl-5-(5-chloro-2-thienyl)-1H-pyrazol-4-yl]pyridine N oxide] |  | logP (pH2.7) (pH 2.7): 2.21
8 | CC(C)Nc1nccc(-c2cn(CCC#N)nc2-c2ccc(Cl)s2)n1 [Example 140] | 2.15^[b] | 
9 | CC(C)Nc1nccc(-c2cn(C3CCCC3)nc2-c2ccc(Cl)s2)n1 [Example 154] | 3.61^[b] | 
10 | C=CCn1cc(-c2ccncc2)c(-c2ccc(Cl)s2)n1 [Example 48] | 1.65^[b] | logP value of the minor isomer (in parenthesis in column Isomer ratio [d]) (pH 2.7): (1.50)
11 | CCn1cc(-c2ccnc(NC(=O)c3ccccc3)c2)c(-c2ccc(Cl)s2)n1 [Example 266] | 3.55^[b] | 
12 | Clc1cc(-c2c[nH]nc2-c2ccc(Cl)s2)ccn1 [Example 40] |  | log p (pH 2.3): 2.75^[a]
13 | CC(C)=CCn1cc(-c2ccnc(NC(C)C)n2)c(-c2ccc(Cl)s2)n1 [Example 118] | 3.44^[b] | logP value of the minor isomer (in parenthesis in column Isomer ratio [d]) (pH 2.7): (3.00)
14 | CCC(C)Nc1nccc(-c2cn(C(C)C)nc2-c2ccc(Cl)s2)n1 (stereo not shown) [Example 182] |  | log p (pH 2.3): 3.15^[a]
15 | C#CCNc1cc(-c2cn(CC(C)C)nc2-c2ccc(Cl)s2)cc[n+]1[O-] [2-Propargylamino-4-[1-isobutyl-3-(5-chloro-2-thienyl)-1H-pyrazol-4-yl]pyridine-N-oxyde] |  | logP (pH2.7) (pH 2.7): 2.70
16 | CC(=O)N(C(C)=O)c1cc(-c2cn(C)nc2-c2ccc(N(C(C)=O)C(C)=O)s2)ccn1 [Example 289] | 1.84^[b] | 
17 | COc1ccc(Cn2nc(-c3ccc(Cl)s3)c(-c3ccncc3)c2SC)cc1 [Example 103] | 3.78^[b] | 
18 | CC(C)n1cc(-c2ccnc(NC=O)n2)c(-c2ccc(Cl)s2)n1 [Example 144] |  | log p (pH 2.3): 3.81^[a]
19 | CC(C)Cn1cc(-c2ccnc(Cl)c2)c(-c2ccc(Cl)s2)n1 [Example 70] |  | log p (pH 2.3): 4.85^[a]
20 | CCC(C)n1ncc(-c2ccncc2)c1-c1ccc(Cl)s1 (stereo not shown) [Example 9] | 1.91^[b] | 
21 | Clc1ccsc1-c1nn(C2CCCC2)cc1-c1ccncc1 [Example 160] | 1.76^[b] | 
22 | CC(C)n1ncc(-c2ccncc2)c1-c1ccc(Cl)s1 [Example 39] | 1.7^[b] | log p (pH 2.3): 1.63^[a];
23 | Fc1ccc(-c2nn(CC=C(Cl)Cl)cc2-c2ccncc2)s1 [Example 346] | 1.43^[b] | 
24 | CC(C)Cn1cc(-c2ccncc2)c(-c2ccc(C#N)s2)n1 [Example 404] | 1.74^[b] | 

Row | Compound | log p (pH 2.7) | further results
25 | [O-][n+]1ccc(-c2c[nH]nc2-c2ccc(Cl)s2)cc1Cl [2-Chloro-4-[3-(5-chloro-2-thienyl)-1H-pyrazol-4-yl]pyridine N oxyde] |  | logP (pH2.7) (pH 2.7): 1.57
26 | N#Cc1ccccc1Cn1cc(-c2ccncc2)c(-c2ccc(Br)s2)n1 [Example 352] | 2.13^[b] | 
27 | CCC(C)n1cc(-c2cc[n+]([O-])cc2)c(-c2ccc(Cl)s2)n1 (stereo not shown) [4-[1-sec-butyl-3-(5-chloro-2-thienyl)-1H-pyrazol-4-yl]pyridine N oxide] |  | logP (pH2.7) (pH 2.7): 2.5
28 | CCC(CC)n1cc(-c2ccnc(NC(C)C)n2)c(-c2ccc(Cl)s2)n1 [Example 116] | 3.57^[b] | logP value of the minor isomer (in parenthesis in column Isomer ratio [d]) (pH 2.7): (3.37)
29 | Cc1ccc(-c2[nH]ncc2-c2ccncc2)s1 [Example 35] | 0.77^[b] | 
30 | CCn1cc(-c2ccnc(NC(=O)OC(C)C)c2)c(-c2ccc(Cl)s2)n1 [Example 268] | 3.35^[b] | 
31 | COCC(C)Nc1nccc(-c2cn(C(C)C)nc2-c2ccc(Cl)s2)n1 (stereo not shown) [Example 178] |  | log p (pH 2.3): 2.82^[a]
32 | CC(C)Cn1ncc(-c2cc[n+]([O-])c(NCc3ccccc3)c2)c1-c1ccc(Cl)s1 [2-Benzylamino-4-[1-isobutyl-5-(5-chloro-2-thienyl)-1H-pyrazol-4-yl]pyridine N oxide] |  | logP (pH2.7) (pH 2.7): 3.48
33 | COCn1cc(-c2ccnc(NC(C)C)n2)c(-c2ccc(Cl)s2)n1 [Example 115] | 2.39^[b] | logP value of the minor isomer (in parenthesis in column Isomer ratio [d]) (pH 2.7): (2.39)
34 | Cn1cc(-c2ccncc2)c(-c2cc(Cl)cs2)n1 [Example 125] | 1.11^[b] | logP value of the minor isomer (pH 2.7): (1.05)
35 | FC(F)Cn1cc(-c2ccnc(Cl)c2)c(-c2ccc(Cl)s2)n1 [Example 314] | 3.71^[b] | 
36 | COc1nccc(-c2c[nH]nc2-c2ccc(Cl)s2)n1 [Example 69] |  | log p (pH 2.3): 2.23^[a]
37 | Cn1cc(-c2ccnc(NC(=O)c3cccs3)c2)c(-c2ccc(Cl)s2)n1 [Example 273] | 3.04^[b] | 
38 | CC(C)n1ncc(-c2ccncn2)c1-c1ccc(Cl)s1 [Example 30] | 2.94^[b] | 
39 | CCn1cc(-c2ccncc2)c(-c2sccc2Cl)n1 [Example 163] | 1.14^[b] | 
40 | CCC(C)n1ncc(-c2ccncn2)c1-c1ccc(Cl)s1 (stereo not shown) [Example 31] | 3.34^[b] | 
41 | CN(C)S(=O)(=O)Nc1cc(-c2cn(C)nc2-c2ccc(Cl)s2)ccn1 [Example 220] | 2.23^[b] | 
42 | CC(C)(C)Cn1ncc(-c2ccncn2)c1-c1ccc(Cl)s1 [Example 34] | 3.82^[b] | 
43 | C=CC(C)n1cc(-c2ccnc(NC(C)C)n2)c(-c2ccc(Cl)s2)n1 (stereo not shown) [Example 123] | 3.02^[b] | logP value of the minor isomer (in parenthesis in column Isomer ratio [d]) (pH 2.7): (2.73)
44 | C=CCn1cc(-c2ccncc2)c(-c2ccc(Br)s2)n1 [Example 383] | 1.82^[b] | logP value of the minor isomer (pH 2.7): (1.73)
45 | CCC(C)n1cc(-c2ccnc(S(C)(=O)=O)n2)c(-c2ccc(Cl)s2)n1 (stereo not shown) [Example 202] |  | log p (pH 2.3): 3.52^[a]
46 | C#CCNc1cc(-c2cnn(CC(C)C)c2-c2ccc(Cl)s2)cc[n+]1[O-] [2-Propargylamino-4-[1-isobutyl-5-(5-chloro-2-thienyl)-1H-pyrazol-4-yl]pyridine-N-oxyde] |  | logP (pH2.7) (pH 2.7): 2.92
47 | CCn1cc(-c2ccncc2)c(-c2cc(Cl)cs2)n1 [Example 156] | 1.34^[b] | 
48 | CCn1cc(-c2ccnc(NC(C)C)n2)c(-c2ccc(Cl)s2)n1 [Example 141] | 2.39^[b] | logP value of the minor isomer (pH 2.7): (2.20)

Row | Compound | log p (pH 2.7) | further results
49 | CCC(C)n1cc(-c2ccnc(NC(=O)c3ccccc3)c2)c(-c2ccc(Cl)s2)n1 (stereo not shown) [Example 237] | 4.46^[b] | 
50 | CC(C)Cn1cc(-c2ccncc2)c(-c2cc(Cl)cs2)n1 [Example 152] | 1.87^[b] | 
51 | C#CCn1cc(-c2ccnc(NC(C)C)n2)c(-c2ccc(Cl)s2)n1 [Example 117] | 2.52^[b] | logP value of the minor isomer (in parenthesis in column Isomer ratio [d]) (pH 2.7): (3.13)
52 | CC(C)n1cc(-c2ccnc(N)c2)c(-c2ccc(Cl)s2)n1 [4-[(3/5)-(5-Chloro-2-thienyl)-1-isopropyl-1H-pyrazol-4-yl]pyridin-2-amine] |  | logP (pH2.7) (pH 2.7): 1.78; logP (pH2.7), minor isomer (pH 2.7): 1.72
53 | CC(C)NC(=O)n1cc(-c2ccncc2)c(-c2ccc(Cl)s2)n1 [Example 89] | 2.26^[b] | 
54 | CCC(C)n1cc(-c2ccnc(NS(=O)(=O)N(C)C)c2)c(-c2ccc(Cl)s2)n1 (stereo not shown) [Example 217] | 3.35^[b] | 
55 | CC(C)=CCn1cc(-c2ccncc2)c(-c2sccc2Cl)n1 [Example 133] | 1.74^[b] | 
56 | Clc1nccc(-c2c[nH]nc2-c2ccc(Cl)s2)n1 [Example 81] |  | log p (pH 2.3): 2.64^[a]
57 | N-Butyl-5-[4-(pyridin-4-yl)-1H-pyrazol-3-yl]thiophene-2-carboxamide hydrochloride |  | logP (pH2.7) (pH 2.7): 1.47
58 | CC(C)Cn1ncc(-c2cc[n+]([O-])c(Cl)c2)c1-c1ccc(Cl)s1 [2-Chloro-4-[1-isobutyl-5-(5-chloro-2-thienyl)-1H-pyrazol-4-yl]pyridine-N-oxyde] |  | logP (pH2.7) (pH 2.7): 3.06
59 | CC(C)n1ncc(-c2ccncc2)c1-c1ccc(I)s1 [Example 215] | 1.78^[b] | 
60 | FC=Cn1cc(-c2ccnc(N=C(c3ccccc3)c3ccccc3)c2)c(-c2ccc(Cl)s2)n1 [Example 302] | 4.67^[b] | 
61 | Clc1ccc(-c2c(-c3ccncc3)cnn2C2CCCCC2)s1 [Example 12] | 2.26^[b] | 
62 | CC(C)Cn1cc(-c2ccnc(NCc3ccccc3)n2)c(-c2ccc(Cl)s2)n1 [Example 93] |  | log p (pH 2.3): 4.31^[a]
63 | CC(C)Cn1cc(-c2cc[n+]([O-])c(Cl)c2)c(-c2ccc(Cl)s2)n1 [Example 74] |  | log p (pH 2.3): 3.04^[a]; logP value of the minor isomer (in parenthesis in column Isomer ratio [d]) (pH 2.3): (2.82)
64 | COCCn1cc(-c2ccncc2)c(-c2ccc(Cl)s2)n1 [Example 49] | 1.42^[b] | logP value of the minor isomer (in parenthesis in column Isomer ratio [d]) (pH 2.7): (1.29)
65 | CC(C)(C)n1ncc(-c2ccncc2)c1-c1ccc(Cl)s1 [Example 10] | 1.95^[b] | 
66 | Fc1ccccc1Cn1cc(-c2ccncc2)c(-c2sccc2Cl)n1 [Example 113] | 1.74^[b] | logP value of the minor isomer (in parenthesis in column Isomer ratio [d]) (pH 2.7): (1.76)
67 | CC(C)n1cc(-c2ccncc2)c(-c2ccc(Br)s2)n1 [4-[1-Isopropyl-(3/5)-(5-bromo-2-thienyl)-1H-pyrazol-4-yl]pyridine] |  | logP (pH2.7) (pH 2.7): 1.88; logP (pH2.7), minor isomer (pH 2.7): 1.76
68 | CC(C)n1cc(-c2ccnc(Cl)c2)c(-c2ccc(Cl)s2)n1 [Example 315] | 4.44^[b] | 
69 | CC(C)Cn1cc(-c2cc[n+]([O-])c(N)c2)c(-c2ccc(Cl)s2)n1 [Example 77] |  | log p (pH 2.3): 2.39^[a]; logP value of the minor isomer (in parenthesis in column Isomer ratio [d]) (pH 2.3): (2.21)
70 | CSc1ccc(-c2c(-c3ccncc3)cnn2C(C)C)s1 [Example 295] | 1.78^[b] | 
71 | NNc1nccc(-c2c[nH]nc2-c2ccc(Cl)s2)n1 [Example 78] |  | log p (pH 2.3): 2.26^[a]
72 | N#CCn1cc(-c2ccncc2)c(-c2ccc(Cl)s2)n1 [Example 53] | 1.4^[b] | logP value of the minor isomer (in parenthesis in column Isomer ratio [d]) (pH 2.7): (1.10)
